Data: ChEMBL document CHEMBL5674879, “Enhancer variants reveal a conserved transcription factor network governed by PU.1 during osteoclast differentiation” (Bone Res, 2018)
Calls of active or inactive are those of the source.

Assays:
Assay type in all cases: functional, cell-based
Leukemia cell [1] = assay: Downregulation of Fosl2 mRNA expression in osteoclasts of human CSF1-induced mouse primary bone marrow derived acute myeloid leukemia cells at 250 nM measured by RT-qPCR analysis
Leukemia cell [2] = assay: Effect on osteoclast differentiation in human CSF1-induced mouse primary bone marrow derived acute myeloid leukemia cells at 250 nM assessed as reduction in PU.1 enrichment at PU.1 enhancers near Nfatc1 measured by Conventional ChIP analysis
Leukemia cell [3] = assay: Downregulation of Nfatc1 mRNA expression in osteoclasts of human CSF1-induced mouse primary bone marrow derived acute myeloid leukemia cells at 250 nM measured by RT-qPCR analysis
Leukemia cell [4] = assay: Effect on osteoclast differentiation in human CSF1-induced mouse primary bone marrow derived acute myeloid leukemia cells at 250 nM assessed as reduction in PU.1 enrichment at PU.1 enhancers near d Fosl2 measured by Conventional ChIP analysis

Measured: Activity

Cc1sc2c(c1C)C(c1ccc(Cl)cc1)=N[C@@H](CC(=O)OC(C)(C)C)c1nnc(C)n1-2
active: Leukemia cell [1] | Leukemia cell [2] | Leukemia cell [3] | Leukemia cell [4]
